Source: US20110172200A1, “USE OF INHIBITOR OF BETA-LACTAMASES AND ITS COMBINATION WITH BETA-LACTAM ANTIBIOTICS” (priority 2008, published 2011)
“And” between values parts separate entries of the source, which are not always exact repeats. Equal values may be shown once. Read-outs that look alike come from different tables or passages of the source.

What was measured:
[1] = test system: E. cloacae B274 (AmpC); assay: Broth microdilution susceptibility assay (MIC), strain S1; assay type: cell-based; details: CAMHB, 35° C., 24 h; for MIC: Enterobacter cloacae
Description: (§1) Representative inhibitor of beta-lactamases of formula (I) was evaluated against the bacterial strains producing serine-based class A beta-lactamases including CTX-M, TEM-type, SHV-type extended spectrum beta-lactamases (ESBL) and class C betalactamases (AmpC) as noted in Table 2.
(§2) Bacterial suspensions with a turbidity equivalent to that of a 0.5 McFarland standard were prepared by suspending a tiny portion of one colony from blood agar plates in 2 mL of sterile saline. Suspensions were further diluted with cation adjusted Mueller Hinton Broth (CAMHB) to obtain a final inoculum of 5×10^5 CFU/mL.
(§3) The in vitro activities of the antibiotics were determined by the broth microdilution method as recommended by CLSI guidelines.
(§4) MIC experiments were performed in duplicate in 96-well microtiter plates using CAMHB. Serial twofold dilutions of each antibiotic either alone or in combination with constant concentration ratio of LK-176 (2:1) and (10:1) were prepared in CAMHB. The bacterial suspension with final inoculum […] was transferred to the test medium containing the antibacterial substances. In each well of microtiter plate 50 μL of bacterial inoculum and 50 μL of antibiotic dilutions were combined. Each plate included 4 wells with no bacterial inoculum (negative control) and 4 wells with no test compound and no antibiotic (positive control). The plates were incubated at 35° C. for 24 h. Purity check and colony counts on each inoculum suspension was performed to ensure that the final inoculum concentration routinely obtained closely approximates 5×10^5 CFU/mL.

[2] = test system: E. caerogenes ATCC 29751 (class II); assay: Broth microdilution susceptibility assay (MIC), strain S4; assay type: cell-based; details: duplicate, CAMHB, 35° C., 24 h
Description: as §1, §2, §3, §4

[3] = test system: E. cloacae B275 (AmpC); assay: Broth microdilution susceptibility assay (MIC), strain S2; assay type: cell-based; details: duplicate, CAMHB, 35° C., 24 h
Description: as §1, §2, §3, §4

[4] = test system: E. cloacae 4013; assay: Broth microdilution susceptibility assay (MIC), strain S3; assay type: cell-based; details: duplicate, CAMHB, 35° C.; for MIC S3: 24 h; for MIC: Enterobacter cloacae, 4013, 24 h
Description: as §1, §2, §3, §4

[5] = test system: E. faecalis ATCC 29212; assay: Broth microdilution susceptibility assay (MIC), strain S5; assay type: cell-based; details: duplicate, CAMHB, 35° C.; for MIC S5: 24 h; for MIC: Enterococcus faecalis, ATCC29212, 24 h
Description: as §1, §2, §3, §4

[6] = test system: C. freundii B318 (CTX-M); assay: Broth microdilution susceptibility assay (MIC), strain S9; assay type: cell-based
Description: as §1, §2, §3, §4

[7] = test system: K. pneumoniae DSA 1461; assay: Broth microdilution susceptibility assay (MIC), strain S6; assay type: cell-based; details: Table 2 lower part, duplicate, CAMHB, 35° C., 24 h
Description: as §1, §2, §3, §4

[8] = test system: C. freundii B271 (SHV-5); assay: Broth microdilution susceptibility assay (MIC), strain S8; assay type: cell-based; details: CAMHB, 35° C., 24 h; for MIC: Citrobacter freundii
Description: as §1, §2, §3, §4

[9] = test system: K. pneumoniae ATCC 700603 (SHV-18); assay: Broth microdilution susceptibility assay (MIC), strain S7; assay type: cell-based; details: CAMHB, 35° C.; for MIC S7: 24 h; for MIC: Klebsiella pneumoniae, ATCC700603, 24 h
Description: as §1, §2, §3, §4

[10] = single and repeated doses, i.v. and oral, healthy subjects; cited from earlier work
[11] = test system: AmpC; details: cited from earlier work
[12] = test system: strains S1-S9; assay: Broth microdilution susceptibility assay (MIC), all strains; assay type: cell-based; details: strains deemed as resistant to LK-176 alone
Description: as §1, §2, §3
as §4, with “The plates were incubated at 35° C. for 24 h. Purity check and colony counts on each inoculum suspension was performed to ensure that the final inoculum concentration routinely obtained closely approximates 5×10^5 CFU/mL.” left out

[13] = target: class A beta-lactamase TEM-1 (Escherichia coli, UniProt P62593); assay: IC50 determination with nitrocefin as reporter substrate, TEM-1; assay type: biochemical, E. coli; details: 30 min pre-incubation at 37° C., phosphate buffer pH 7.0, nitrocefin
Chain of class A beta-lactamase TEM-1 (P62593 24-286 limits assumed): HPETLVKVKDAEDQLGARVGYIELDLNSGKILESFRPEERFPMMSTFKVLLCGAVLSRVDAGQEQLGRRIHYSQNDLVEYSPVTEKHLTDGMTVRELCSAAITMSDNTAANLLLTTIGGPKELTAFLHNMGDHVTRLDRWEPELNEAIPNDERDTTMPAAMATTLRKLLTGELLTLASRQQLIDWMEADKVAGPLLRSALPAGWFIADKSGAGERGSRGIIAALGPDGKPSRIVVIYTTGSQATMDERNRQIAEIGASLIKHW
Description: (§5) The IC50 value represents the concentration of inhibitor required to effect a 50% loss of activity of free enzyme. A standard test for the production of beta-lactamase involves use of the chromogenic cephalosporin, nitrocefin.
(§6) Homogeneously purified class A beta-lactamases TEM-1 and SHV-1 from E. coli and class C enzyme P99 from Enterobacter cloaca were employed in the assay.
(§7) All the enzymes and compounds were dissolved in 50 mM phosphate buffer pH 7.0 and all further dilutions were done with the same buffer solution. Enzyme and compound dilutions were pre-incubated for 30 min at 37° C. and in a final volume of 500 μl. Than 10 μl of 5 mM nitrocefin (reporter substrate) was added to the solution and the absorbance at 482 nm was measured during 2 to 5 minutes. The initial rate was calculated for all the different solutions. The […] values were determined as the inhibitor concentration that gave an initial hydrolysis rate of nitrocefin equal to 50% of the hydrolysis rate of nitrocefin in absence of inhibitor.
(§8) Representative compounds of formula (I) were evaluated as inhibitors of beta-lactamases of TEM-1 and SHV-1 (class A, penicillinase) from E. coli and P-99 (class C, cephalosporinase) from Enterobacter cloacae, by relative IC50 analysis using a procedure similar to that described above.

[14] = target: class A beta-lactamase SHV-1 (Escherichia coli, UniProt P0AD63); assay: IC50 determination with nitrocefin as reporter substrate, SHV-1; assay type: biochemical, E. coli
Chain of class A beta-lactamase SHV-1 (P0AD63 22-286): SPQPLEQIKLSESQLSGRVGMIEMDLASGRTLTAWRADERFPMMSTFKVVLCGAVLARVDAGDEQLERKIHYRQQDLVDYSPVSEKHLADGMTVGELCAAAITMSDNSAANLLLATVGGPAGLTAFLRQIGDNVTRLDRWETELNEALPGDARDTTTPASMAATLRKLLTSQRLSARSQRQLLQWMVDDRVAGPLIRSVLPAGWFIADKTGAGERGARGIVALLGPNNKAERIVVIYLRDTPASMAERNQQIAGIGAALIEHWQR
Description: as §5, §6, §7, §8

[15] = target: class C beta-lactamase P99 (AmpC) (Enterobacter cloacae, UniProt P05364); assay: IC50 determination with nitrocefin as reporter substrate, P99; assay type: biochemical
Chain of class C beta-lactamase P99 (AmpC) (P05364 21-381): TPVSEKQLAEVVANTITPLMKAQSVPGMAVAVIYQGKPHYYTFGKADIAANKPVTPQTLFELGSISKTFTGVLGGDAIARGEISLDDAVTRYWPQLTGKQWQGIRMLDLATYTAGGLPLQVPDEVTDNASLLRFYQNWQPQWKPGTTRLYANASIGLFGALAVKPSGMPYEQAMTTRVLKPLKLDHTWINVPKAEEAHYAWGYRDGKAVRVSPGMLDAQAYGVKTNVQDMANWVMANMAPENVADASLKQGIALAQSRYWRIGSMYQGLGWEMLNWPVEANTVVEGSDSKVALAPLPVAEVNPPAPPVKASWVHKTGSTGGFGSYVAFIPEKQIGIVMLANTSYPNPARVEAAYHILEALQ
Description: as §5, §6, §7, §8

[16] = Table 2 upper part, duplicate (two lines per substance)
[17] = Table 2 lower part, duplicate, CAMHB, 35° C., 24 h

SMILES: CO/N=C(\C(=O)N[C@@H]1C(=O)N2C(C(=O)O)=C(COC(C)=O)CS[C@H]12)c1csc(N)n1 [Cefotaxime (OTA), cefotaxime]
- MIC S1 [1, 16]: 128 µg/mL
- MIC S4 ([2]; Table 2 upper part): 8 µg/mL
- MIC S2 ([3]; Table 2 upper part): 128 µg/mL
- MIC S3 ([4]; Table 2 upper part): 64 µg/mL
- MIC S5 ([5]; Table 2 upper part): 16 µg/mL

SMILES: CO/N=C(\C(=O)N[C@@H]1C(=O)N2C(C(=O)O)=C(COC(N)=O)CS[C@H]12)c1ccco1 [Cefuroxime (URO), cefuroxime]
- MIC S9 [6]: 128 µg/mL
- MIC S6 [7]: >128 µg/mL
- MIC S1 ([1]; Table 2 lower part, duplicate): >128 µg/mL
- MIC S8 ([8]; Table 2 lower part, duplicate): 128 µg/mL
- MIC S4 ([2]; Table 2 lower part): 128 µg/mL
- MIC S7 ([9]; Table 2 lower part, duplicate): 64 µg/mL and 32 µg/mL
- MIC S2 ([3]; Table 2 lower part): >128 µg/mL
- MIC S3 ([4]; Table 2 lower part): >128 µg/mL
- MIC S5 ([5]; Table 2 lower part): 64 µg/mL and 32 µg/mL

SMILES: CCN1CCN(C(=O)N[C@@H](C(=O)N[C@@H]2C(=O)N3[C@@H]2SC(C)(C)[C@@H]3C(=O)O)c2ccccc2)C(=O)C1=O [Piperacillin (PIP), piperacillin]
- MIC S9 [6, 17]: 128 µg/mL
- MIC S6 [7]: >128 µg/mL
- MIC S1 ([1]; Table 2 lower part, duplicate): >128 µg/mL
- MIC S8 ([8]; Table 2 lower part, duplicate): >128 µg/mL
- MIC S4 ([2]; Table 2 lower part): 32 µg/mL
- MIC S7 ([9]; Table 2 lower part, duplicate): >128 µg/mL
- MIC S2 ([3]; Table 2 lower part): >128 µg/mL
- MIC S3 ([4]; Table 2 lower part): >128 µg/mL
- MIC S5 ([5]; Table 2 lower part): 16 µg/mL

SMILES: CO/N=C(\C(=O)N[C@@H]1C(=O)N2C(C(=O)O)=C(CSc3nc(=O)c(O)nn3C)CS[C@H]12)c1csc(N)n1 [Ceftriaxone (TRI), ceftriaxone]
- MIC S6 [7]: >128 µg/mL and 128 µg/mL
- MIC S1 ([1]; Table 2 lower part, duplicate): 128 µg/mL
- MIC S8 ([8]; Table 2 lower part, duplicate): 32 µg/mL
- MIC S4 ([2]; Table 2 lower part): 8 µg/mL
- MIC S7 ([9]; Table 2 lower part, duplicate): 8 µg/mL
- MIC S2 ([3]; Table 2 lower part): 64 µg/mL
- MIC S3 ([4]; Table 2 lower part): 32 µg/mL
- MIC S5 ([5]; Table 2 lower part): >128 µg/mL

SMILES: CO/N=C(\C(=O)N[C@@H]1C(=O)N2C(C(=O)[O-])=C(C[N+]3(C)CCCC3)CS[C@H]12)c1csc(N)n1 [Cefepime (EPI), cefepime]
- MIC S5 ([5]; Table 2 upper part): 32 µg/mL and 16 µg/mL

SMILES: CO[C@H]1CCC[C@H]2C1=C(C(=O)O)N1C(=O)[C@H]([C@@H](C)O)[C@@H]21 [sanfetrinem]
- Safety and tolerability [10]: good tolerability
- kcat values of AmpC [11]: 0.00033 s⁻¹

SMILES: CC(C)(O/N=C(\C(=O)N[C@@H]1C(=O)N2C(C(=O)[O-])=C(C[n+]3ccccc3)CS[C@H]12)c1csc(N)n1)C(=O)O [Ceftazidime (TAZ), ceftazidime]
- MIC S1 [1, 16]: >128 µg/mL
- MIC S4 ([2]; Table 2 upper part): 16 µg/mL
- MIC S2 ([3]; Table 2 upper part): >128 µg/mL
- MIC S3 ([4]; Table 2 upper part): 128 µg/mL
- MIC S5 ([5]; Table 2 upper part): 16 µg/mL

SMILES: C=CC1=C(C(=O)O)N2C(=O)[C@@H](NC(=O)/C(=N\OCC(=O)O)c3csc(N)n3)[C@H]2SC1 [cefixime]
- kcat values of AmpC [11]: 10 s⁻¹

SMILES: CO[C@H]1CCC[C@H]2C1=C(C(=O)O)N1C(=O)C(C(C)O)[C@@H]21 (stereo partly drawn) [LK-176, (4S,8S,9R)-4-methoxy-10-(1-Hydroxyethyl)-11-oxo-1-azatricyclo-[7.2.0.0 (3,8)]undec-2-ene-2-carboxylic acid]
- MIC S9 [6, 17]: 32 µg/mL
- MIC values of LK-176 alone, all strains S1-S9 [12]: above 16 mg/L
- MIC ([7]; Klebsiella pneumoniae, DSA1461): 16 µg/mL
- MIC ([1]; Table 2 lower part, duplicate): 32 µg/mL
- MIC [1, 16]: 32 µg/mL
- MIC S1 ([1]; Table 2 lower part, duplicate): 16 µg/mL
- IC50 [13]: 15 nM
- MIC ([8]; Table 2 lower part, duplicate): 64 µg/mL
- MIC ([8]; Table 2 upper part, column 7, duplicate): 128 µg/mL
- MIC ([2]; Table 2 lower part): 16 µg/mL
- MIC ([2]; Table 2 upper part): 32 µg/mL
- IC50 [14]: 200 nM
- IC50 [15]: 0.15 nM
- MIC ([9]; Table 2 lower part, duplicate): > 128 µg/mL
- MIC ([9]; Table 2 upper part, column 6, duplicate): 16 µg/mL
- MIC S7 ([9]; Table 2 lower part, duplicate): 128 µg/mL
- MIC ([3]; Enterobacter cloacae, Table 2 lower part): 64 µg/mL
- MIC ([4]; Table 2 lower part): 64 µg/mL
- MIC ([4]; Table 2 upper part): 64 µg/mL
- MIC S3 ([4]; Table 2 lower part): 32 µg/mL
- MIC ([5]; Table 2 lower part): 64 µg/mL
- MIC ([5]; Table 2 upper part): 32 µg/mL
